Reference: patent US12258327B2, “5-membered heteroaryl-containing aminopyridine compounds as EGFR inhibitors” (YUHAN CORPORATION, priority 2021, dated 2025)
Like-named read-outs stand apart in the source and are kept apart here.

Columns and labels:
[1] = molecular target: EGFR wildtype (WT) (Homo sapiens, UniProt P00533); assay: Biochemical EGFR kinase assay (Lance Ultra TR-FRET), wildtype
Outline: (§1)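 Kinase activity is measured by TR-FRET phosphopeptide detection. Compounds span 0.003 μM to 10 μM; the 1 h reaction at room temperature is quenched with EDTA, then labelled antibody (2 nM) is incubated 60 min before reading.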

[2] = molecular target: EGFR L858R/C797S (Homo sapiens, UniProt P00533, C797S/L858R); assay: Biochemical EGFR kinase assay (Lance Ultra TR-FRET), double mutant L858R/C797S
EGFR L858R/C797S, sequence (P00533 25-1210 C797S/L858R): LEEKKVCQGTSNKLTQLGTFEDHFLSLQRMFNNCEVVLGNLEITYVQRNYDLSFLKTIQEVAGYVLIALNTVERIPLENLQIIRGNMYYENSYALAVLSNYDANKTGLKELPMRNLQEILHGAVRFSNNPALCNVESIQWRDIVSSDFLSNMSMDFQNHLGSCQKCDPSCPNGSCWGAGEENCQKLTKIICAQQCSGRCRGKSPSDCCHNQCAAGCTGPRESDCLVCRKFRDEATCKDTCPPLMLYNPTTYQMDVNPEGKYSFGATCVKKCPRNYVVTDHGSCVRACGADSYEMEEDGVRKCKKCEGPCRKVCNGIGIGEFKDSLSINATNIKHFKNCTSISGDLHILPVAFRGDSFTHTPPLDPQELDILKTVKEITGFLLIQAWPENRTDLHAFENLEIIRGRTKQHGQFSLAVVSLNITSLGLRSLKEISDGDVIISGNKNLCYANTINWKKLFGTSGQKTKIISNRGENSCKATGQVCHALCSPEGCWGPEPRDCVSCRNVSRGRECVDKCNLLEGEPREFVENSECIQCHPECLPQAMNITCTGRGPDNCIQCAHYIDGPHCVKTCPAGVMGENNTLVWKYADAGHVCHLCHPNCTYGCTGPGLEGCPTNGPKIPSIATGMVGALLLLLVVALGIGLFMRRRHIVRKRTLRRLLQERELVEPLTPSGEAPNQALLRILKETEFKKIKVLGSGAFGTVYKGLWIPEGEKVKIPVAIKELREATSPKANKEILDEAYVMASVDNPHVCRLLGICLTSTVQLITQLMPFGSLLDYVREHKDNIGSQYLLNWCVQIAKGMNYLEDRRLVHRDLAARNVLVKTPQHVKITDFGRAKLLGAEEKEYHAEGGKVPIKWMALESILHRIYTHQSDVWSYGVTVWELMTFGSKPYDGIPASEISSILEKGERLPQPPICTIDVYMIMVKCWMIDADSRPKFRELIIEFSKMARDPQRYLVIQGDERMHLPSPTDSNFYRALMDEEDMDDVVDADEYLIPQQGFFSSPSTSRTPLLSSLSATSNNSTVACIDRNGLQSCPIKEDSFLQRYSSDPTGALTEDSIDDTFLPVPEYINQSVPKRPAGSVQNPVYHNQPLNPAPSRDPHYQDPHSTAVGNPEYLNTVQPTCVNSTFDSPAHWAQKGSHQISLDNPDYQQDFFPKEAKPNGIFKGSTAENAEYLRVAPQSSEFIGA
Outline: as §1

[3] = molecular target: EGFR L858R/T790M/C797S (Homo sapiens, UniProt P00533, C797S/L858R/T790M); assay: Biochemical EGFR kinase assay (Lance Ultra TR-FRET), triple mutant L858R/T790M/C797S
Outline: as §1

[4] = molecular target: EGFR del19/C797S (Homo sapiens, UniProt P00533, C797S/DEL746-750); assay: Biochemical EGFR kinase assay (Lance Ultra TR-FRET), double mutant del19/C797S
EGFR del19/C797S, sequence (P00533 with tags, fused parts or gaps DEL746-750/C797S): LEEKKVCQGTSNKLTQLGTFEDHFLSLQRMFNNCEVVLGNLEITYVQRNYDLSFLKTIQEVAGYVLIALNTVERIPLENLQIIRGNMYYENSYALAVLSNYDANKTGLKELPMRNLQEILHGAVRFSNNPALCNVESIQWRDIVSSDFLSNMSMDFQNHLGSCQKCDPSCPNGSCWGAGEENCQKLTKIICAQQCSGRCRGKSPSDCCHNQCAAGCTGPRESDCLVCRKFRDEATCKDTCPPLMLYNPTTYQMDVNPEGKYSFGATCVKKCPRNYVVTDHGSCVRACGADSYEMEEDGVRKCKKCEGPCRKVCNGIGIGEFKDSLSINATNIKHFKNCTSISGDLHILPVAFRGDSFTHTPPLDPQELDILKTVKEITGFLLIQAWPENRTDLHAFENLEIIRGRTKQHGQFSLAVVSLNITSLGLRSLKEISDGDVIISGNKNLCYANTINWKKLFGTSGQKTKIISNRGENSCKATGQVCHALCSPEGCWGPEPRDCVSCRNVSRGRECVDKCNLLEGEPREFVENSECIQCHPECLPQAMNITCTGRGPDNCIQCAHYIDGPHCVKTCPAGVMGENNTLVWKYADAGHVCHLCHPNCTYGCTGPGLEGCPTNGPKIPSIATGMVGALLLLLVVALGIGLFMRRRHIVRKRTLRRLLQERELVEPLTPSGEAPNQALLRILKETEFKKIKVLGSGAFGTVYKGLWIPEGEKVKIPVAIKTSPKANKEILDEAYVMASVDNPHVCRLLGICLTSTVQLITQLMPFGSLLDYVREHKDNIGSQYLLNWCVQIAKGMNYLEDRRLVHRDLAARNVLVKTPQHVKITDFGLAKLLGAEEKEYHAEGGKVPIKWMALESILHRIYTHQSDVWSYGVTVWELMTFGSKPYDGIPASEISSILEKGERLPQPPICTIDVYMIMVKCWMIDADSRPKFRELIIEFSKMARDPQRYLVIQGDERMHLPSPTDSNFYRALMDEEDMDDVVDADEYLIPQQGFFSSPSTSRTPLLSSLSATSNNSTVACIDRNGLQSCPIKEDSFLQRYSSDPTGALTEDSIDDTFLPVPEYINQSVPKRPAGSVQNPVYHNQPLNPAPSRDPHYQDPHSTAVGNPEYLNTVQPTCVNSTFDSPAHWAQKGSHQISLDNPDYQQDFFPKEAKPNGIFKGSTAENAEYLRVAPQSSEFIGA
Outline: as §1

[5] = molecular target: EGFR del19/T790M/C797S (Homo sapiens, UniProt P00533, C797S/DEL746-750/T790M); assay: Biochemical EGFR kinase assay (Lance Ultra TR-FRET), triple mutant del19/T790M/C797S
EGFR del19/T790M/C797S, sequence (P00533 with tags, fused parts or gaps DEL746-750/T790M/C797S): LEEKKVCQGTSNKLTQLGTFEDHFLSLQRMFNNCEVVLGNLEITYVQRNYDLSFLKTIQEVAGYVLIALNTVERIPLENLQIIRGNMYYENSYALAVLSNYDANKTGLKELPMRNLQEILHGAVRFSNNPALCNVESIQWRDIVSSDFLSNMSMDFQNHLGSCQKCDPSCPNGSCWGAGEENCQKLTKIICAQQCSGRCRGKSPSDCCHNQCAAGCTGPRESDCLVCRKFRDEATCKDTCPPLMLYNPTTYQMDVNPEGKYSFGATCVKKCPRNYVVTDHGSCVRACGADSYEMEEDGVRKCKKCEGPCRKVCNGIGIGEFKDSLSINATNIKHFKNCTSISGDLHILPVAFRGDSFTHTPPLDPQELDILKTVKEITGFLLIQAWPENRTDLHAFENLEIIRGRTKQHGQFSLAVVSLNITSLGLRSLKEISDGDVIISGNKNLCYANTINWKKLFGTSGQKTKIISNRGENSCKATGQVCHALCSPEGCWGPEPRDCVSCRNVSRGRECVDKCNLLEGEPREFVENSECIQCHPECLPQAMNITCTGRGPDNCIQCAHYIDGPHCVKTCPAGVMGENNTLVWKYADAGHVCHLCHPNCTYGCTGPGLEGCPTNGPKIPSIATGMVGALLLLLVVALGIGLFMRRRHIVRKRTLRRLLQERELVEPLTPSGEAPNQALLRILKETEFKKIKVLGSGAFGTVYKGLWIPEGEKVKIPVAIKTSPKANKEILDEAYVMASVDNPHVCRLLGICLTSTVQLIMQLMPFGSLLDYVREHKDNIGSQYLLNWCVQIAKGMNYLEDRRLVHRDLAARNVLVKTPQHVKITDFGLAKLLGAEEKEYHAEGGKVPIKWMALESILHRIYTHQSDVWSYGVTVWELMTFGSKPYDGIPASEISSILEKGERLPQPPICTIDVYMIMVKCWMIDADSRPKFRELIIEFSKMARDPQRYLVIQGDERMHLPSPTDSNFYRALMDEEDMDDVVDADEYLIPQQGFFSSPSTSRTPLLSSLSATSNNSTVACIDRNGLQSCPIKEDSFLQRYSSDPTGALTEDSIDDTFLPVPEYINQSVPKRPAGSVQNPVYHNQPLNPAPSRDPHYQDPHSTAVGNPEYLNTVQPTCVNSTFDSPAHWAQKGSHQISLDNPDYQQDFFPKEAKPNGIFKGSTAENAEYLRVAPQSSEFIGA
Outline: as §1

[6] = IC50 WT (nM) 100 μM ATP, 100 μM ATP
[7] = Km ATP, read-out: IC50 WT (nM) Km ATP
[8] = IC50 L858R/C797S (nM) 100 μM ATP, 100 μM ATP
[9] = Km ATP, read-out: IC50 L858R/C797S (nM) Km ATP
[10] = IC50 L858R/T790M/C797S (nM) 100 μM ATP, 100 μM ATP
[11] = Km ATP, read-out: IC50 L858R/T790M/C797S (nM) Km ATP
[12] = IC50 del19/C797S (nM) 100 μM ATP, 100 μM ATP
[13] = Km ATP, read-out: IC50 del19/C797S (nM) Km ATP
[14] = IC50 del19/T790M/C797S (nM) 100 μM ATP, 100 μM ATP
[15] = Km ATP, read-out: IC50 del19/T790M/C797S (nM) Km ATP

EGFR wildtype (WT), sequence (P00533 25-1210): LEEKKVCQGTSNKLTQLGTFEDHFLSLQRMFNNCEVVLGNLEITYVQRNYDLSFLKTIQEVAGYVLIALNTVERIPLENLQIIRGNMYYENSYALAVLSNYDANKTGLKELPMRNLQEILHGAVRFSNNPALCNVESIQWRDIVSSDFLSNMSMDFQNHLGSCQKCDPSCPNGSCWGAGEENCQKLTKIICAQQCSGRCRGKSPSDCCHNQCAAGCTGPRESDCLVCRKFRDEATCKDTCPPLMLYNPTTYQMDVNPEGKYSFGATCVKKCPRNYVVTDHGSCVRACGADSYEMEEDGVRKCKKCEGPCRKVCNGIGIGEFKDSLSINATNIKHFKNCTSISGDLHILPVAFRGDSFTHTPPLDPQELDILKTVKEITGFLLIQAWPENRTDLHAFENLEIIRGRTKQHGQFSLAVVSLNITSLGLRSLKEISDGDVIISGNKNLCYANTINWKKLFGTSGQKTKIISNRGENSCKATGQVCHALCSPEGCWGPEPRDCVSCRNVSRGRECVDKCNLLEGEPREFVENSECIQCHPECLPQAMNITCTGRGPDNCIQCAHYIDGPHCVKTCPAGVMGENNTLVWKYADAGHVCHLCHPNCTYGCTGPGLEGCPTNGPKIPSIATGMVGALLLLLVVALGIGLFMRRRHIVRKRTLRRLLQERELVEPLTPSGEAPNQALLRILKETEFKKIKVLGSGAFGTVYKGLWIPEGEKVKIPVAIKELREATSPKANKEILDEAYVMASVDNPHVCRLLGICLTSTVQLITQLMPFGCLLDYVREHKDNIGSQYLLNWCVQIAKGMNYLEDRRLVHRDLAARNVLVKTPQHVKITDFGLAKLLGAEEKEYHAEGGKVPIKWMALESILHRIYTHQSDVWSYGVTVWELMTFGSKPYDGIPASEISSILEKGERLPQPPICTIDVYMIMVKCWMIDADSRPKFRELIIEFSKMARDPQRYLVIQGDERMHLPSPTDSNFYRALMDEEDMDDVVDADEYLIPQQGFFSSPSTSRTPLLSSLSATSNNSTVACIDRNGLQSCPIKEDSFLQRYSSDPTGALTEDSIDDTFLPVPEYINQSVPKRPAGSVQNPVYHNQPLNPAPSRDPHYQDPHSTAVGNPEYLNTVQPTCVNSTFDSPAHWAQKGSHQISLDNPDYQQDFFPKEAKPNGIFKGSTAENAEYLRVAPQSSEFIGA

Structure (SMILES) | IC50 [1, 6] [nM] | IC50 [1, 7] [nM] | IC50 [2, 8] [nM] | IC50 [2, 9] [nM] | IC50 [3, 10] [nM] | IC50 [3, 11] [nM] | IC50 [4, 12] [nM] | IC50 [4, 13] [nM] | IC50 [5, 14] [nM] | IC50 [5, 15] [nM] | IC50 ([1]; read-out: IC50 WT (nM) 100 μM ATP, 100 μM ATP) [nM] | IC50 ([2]; read-out: IC50 L858R/C797S (nM) 100 μM ATP, 100 μM ATP) [nM] | IC50 ([3]; read-out: IC50 L858R/T790M/C797S (nM) 100 μM ATP, 100 μM ATP) [nM] | IC50 ([4]; read-out: IC50 del19/C797S (nM) 100 μM ATP, 100 μM ATP) [nM] | IC50 ([5]; read-out: IC50 del19/T790M/C797S (nM) 100 μM ATP, 100 μM ATP) [nM]
C[C@]1(O)CC[C@@H](Nc2cc(Nc3ccnc(-c4cnn(CC(F)F)c4)n3)ncc2-c2ccn(C(F)F)n2)CC1 [Example 143, (1s,4s)-4-((2-((2-(1-(2,2-Difluoroethyl)-1H-pyrazol-4-yl)pyrimidin-4-yl)amino)-5-(1-(difluoromethyl)-1H-pyrazol-3-yl)pyridin-4-yl)amino)-1-methylcyclohexan-1-ol] | > 10000 | 62.7 | 11.6 | 0.9 | 0.2 | 0.1 | 2.7 | 2.9 | 0.1 | 0.1 | – | – | – | – | –
CC(C)(O)Cn1cc(-c2nccc(Nc3cc(N[C@H]4CC[C@@](C)(O)CC4)c(-c4ccn(C(F)F)n4)cn3)n2)cn1 [Example 142, (1s,4s)-4-((5-(1-(Difluoromethyl)-1H-pyrazol-3-yl)-2-((2-(1-(2-hydroxy-2-methylpropyl)-1H-pyrazol-4-yl)pyrimidin-4-yl)amino)pyridin-4-yl)amino)-1-methylcyclohexan-1-ol] | > 10000 | 486 | 37.5 | – | 33.8 | – | 114 | – | 17.6 | – | – | – | – | – | –
O=S(=O)(C1CC1)n1cc(-c2nccc(Nc3cc(NC4CCC5(CC4)CNC5)c(-c4ccn(C(F)F)n4)cn3)n2)cn1 [Example 27, N^2-(2-(1-(Cyclopropylsulfonyl)-1H-pyrazol-4-yl)pyrimidin-4-yl)-5-(1-(difluoromethyl)-1H-pyrazol-3-yl)-N^4-(2-azaspiro[3.5]nonan-7-yl)pyridine-2,4-diamine] | 162 | 0.7 | 2.2 | 0.5 | 0.4 | 0.2 | 0.3 | 0.2 | 0.6 | 0.7 | – | – | – | – | –
Cn1ccc(-c2cnc(Nc3ccnc(-c4cnn(S(=O)(=O)C5CC5)c4)n3)cc2N[C@H]2CC[C@](O)(C(F)(F)F)CC2)n1 [Example 94, (1s,4s)-4-((2-((2-(1-(Cyclopropylsulfonyl)-1H-pyrazol-4-yl)pyrimidin-4-yl)amino)-5-(1-methyl-1H-pyrazol-3-yl)pyridin-4-yl)amino)-1-(trifluoromethyl)cyclohexan-1-ol] | – | – | – | – | – | – | – | – | – | – | > 10000 | 58.1 | 4 | 54.1 | 3.4
O=S(=O)(C1CC1)n1cc(-c2nccc(Nc3cc(N[C@H]4CC[C@@H](O)CC4)c(-c4cnn(C5CC5)c4)cn3)n2)cn1 [Example 78, (1s,4s)-4-((5-(1-Cyclopropyl-1H-pyrazol-4-yl)-2-((2-(1-(cyclopropylsulfonyl)-1H-pyrazol-4-yl)pyrimidin-4-yl)amino)pyridin-4-yl)amino)cyclohexan-1-ol] | > 10000 | – | 161 | – | 5.4 | – | 38.5 | – | 4.8 | – | – | – | – | – | –
O=S(=O)(C1CC1)n1cc(-c2nccc(Nc3cc(N[C@H]4CC[C@](O)(CO)CC4)c(-c4cc5n(n4)CCCC5)cn3)n2)cn1 [Example 275, (1s,4s)-4-((2-((2-(1-(Cyclopropylsulfonyl)-1H-pyrazol-4-yl)pyrimidin-4-yl)amino)-5-(4,5,6,7-tetrahydropyrazolo[1,5-a]pyridin-2-yl)pyridin-4-yl)amino)-1-(hydroxymethyl)cyclohexan-1-ol] | 2940 | 1.8 | 4.7 | 0.4 | 0.5 | 0.2 | 0.6 | 0.4 | 0.6 | 0.4 | – | – | – | – | –
Cn1ccc(-c2cnc(Nc3ccnc(-c4cnn(S(=O)(=O)C5CC5)c4)n3)cc2N[C@H]2CC[C@@H](NCCF)CC2)n1 [Example 43, N^2-(2-(1-(Cyclopropylsulfonyl)-1H-pyrazol-4-yl)pyrimidin-4-yl)-N^4-((1s,4s)-4-((2-fluoroethyl)amino)cyclohexyl)-5-(1-methyl-1H-pyrazol-3-yl)pyridine-2,4-diamine] | 5240 | 4.9 | 14.7 | 0.4 | 0.3 | 0.1 | – | 0.7 | 0.3 | 0.2 | – | – | – | – | –
Cn1ccc(-c2cnc(Nc3ccnc(-c4cnn(S(=O)(=O)C5CC5)c4)n3)cc2NC2CCCC(NCC(F)F)C2)n1 (stereo not shown) [Example 224, N^2-(2-(1-(Cyclopropylsulfonyl)-1H-pyrazol-4-yl)pyrimidin-4-yl)-N^4-(3-((2,2-difluoroethyl)amino)cyclohexyl)-5-(1-methyl-1H-pyrazol-3-yl)pyridine-2,4-diamine] | > 10000 | 37.8 | 132 | 6.6 | 0.7 | 0.3 | 4.7 | 3.3 | 0.7 | 0.5 | – | – | – | – | –
O=S(=O)(C1CC1)n1cc(-c2nccc(Nc3cc(OC4CCC(O)C4)c(-c4ccn(C(F)F)n4)cn3)n2)cn1 (stereo not shown) [Example 67, 3-((2-((2-(1-(Cyclopropylsulfonyl)-1H-pyrazol-4-yl)pyrimidin-4-yl)amino)-5-(1-(difluoromethyl)-1H-pyrazol-3-yl)pyridin-4-yl)oxy)cyclopentan-1-ol] | > 10000 | 336 | 596 | 23.5 | 15.7 | 3.8 | 111 | 111 | 3.6 | 3.4 | – | – | – | – | –
CN(C)CC[C@H]1CC[C@@H](Nc2cc(Nc3ccnc(-c4cnn(S(=O)(=O)C5CC5)c4)n3)ncc2-c2ccn(C)n2)CC1 [Example 240, N^2-(2-(1-(Cyclopropylsulfonyl)-1H-pyrazol-4-yl)pyrimidin-4-yl)-N^4-((1s,4s)-4-(2-(dimethylamino)ethyl)cyclohexyl)-5-(1-methyl-1H-pyrazol-3-yl)pyridine-2,4-diamine] | – | 0.2 | – | 0.04 | – | 0.1 | – | 0.2 | – | 0.4 | – | – | – | – | –
O=S(=O)(C1CC1)n1cc(-c2nccc(Nc3cc(N[C@H]4CC[C@@H](NCCF)CC4)c(-c4nc(C(F)F)cs4)cn3)n2)cn1 [Example 123, N^2-(2-(1-(Cyclopropylsulfonyl)-1H-pyrazol-4-yl)pyrimidin-4-yl)-5-(4-(difluoromethyl)thiazol-2-yl)-N^4-((1s,4s)-4-((2-fluoroethyl)amino)cyclohexyl)pyridine-2,4-diamine] | > 10000 | 21.6 | 22.5 | 1.9 | 0.2 | 0.1 | 1.3 | 1.4 | 0.2 | 0.3 | – | – | – | – | –
O=S(=O)(C1CC1)n1cc(-c2nccc(Nc3cc(N[C@H]4CC[C@@H](NCC(F)F)CC4)c(-c4csc(C(F)(F)F)n4)cn3)n2)cn1 [Example 53, N^2-(2-(1-(Cyclopropylsulfonyl)-1H-pyrazol-4-yl)pyrimidin-4-yl)-N^4-((1s,4s)-4-((2,2-difluoroethyl)amino)cyclohexyl)-5-(2-(trifluoromethyl)thiazol-4-yl)pyridine-2,4-diamine] | > 10000 | 105 | 264 | 15 | 11.3 | 2.9 | 14.2 | 7.7 | 9.4 | 8.5 | – | – | – | – | –
